Several values for one entry are separate records, joined by “and”; a condition that tells them apart may be missing. Equal values may be shown once. Inconclusive results and toxic doses are left out.
Test system: P388 leukemia ip, CD2F1 mice, survival T/C
Assay: NCI In Vivo Anticancer Drug Screen. Data for tumor model P388 Leukemia (intraperitoneal) in CD2F1 (CDF1) mice
Conditions: endpoint: median survival time, higher = longer survival
Summary of the method: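 Mice carrying the transplanted tumor received test compound or vehicle. Survival was recorded in each group, and the value is the treated-group measurement divided by that of the vehicle-treated control group.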

COc1cc(NCc2ccc3nc(N)nc(N)c3c2C)cc(OC)c1OC
T/C (dose: 1.56 mg/kg/injection, schedule: Q01DX009 (ip), vehicle: Klucel (hydroxypropylcellulose) (HPC)): 112 % of control | T/C (dose: 1.56 mg/kg/injection, schedule: Q01DX009 (ip), vehicle: clinical formulation): 111 % of control | T/C (dose: 1.88 mg/kg/injection, schedule: Q01DX005 (ip), vehicle: Klucel (hydroxypropylcellulose) (HPC)): 121 % of control | T/C (dose: 1.88 mg/kg/injection, schedule: Q01DX005 (ip), vehicle: clinical formulation): 102 % of control | T/C (dose: 1.88 mg/kg/injection, schedule: Q01DX005 (iv), vehicle: clinical formulation): 102 % of control | T/C (dose: 2.1 mg/kg/injection, schedule: Q01DX009 (ip), vehicle: water): 116 % of control | T/C (dose: 2.5 mg/kg/injection, schedule: Q01DX009 (ip), vehicle: sodium bicarbonate): 124 % of control | T/C (dose: 2.52 mg/kg/injection, schedule: Q01DX005 (iv), vehicle: water): 103 % of control | T/C (dose: 3.12 mg/kg/injection, schedule: Q01DX009 (ip), vehicle: Klucel (hydroxypropylcellulose) (HPC)): 124 % of control | T/C (dose: 3.12 mg/kg/injection, schedule: Q01DX009 (ip), vehicle: clinical formulation): 109 % of control | T/C (dose: 3.75 mg/kg/injection, schedule: Q01DX005 (ip), vehicle: Klucel (hydroxypropylcellulose) (HPC)): 124 % of control | T/C (dose: 3.75 mg/kg/injection, schedule: Q01DX005 (ip), vehicle: clinical formulation): 100 % of control | T/C (dose: 3.75 mg/kg/injection, schedule: Q01DX005 (iv), vehicle: clinical formulation): 103 % of control | T/C (dose: 4.19 mg/kg/injection, schedule: Q01DX009 (ip), vehicle: water): 120 % of control | T/C (dose: 5.0 mg/kg/injection, schedule: Q01DX009 (ip), vehicle: sodium bicarbonate): 154 % of control | T/C (dose: 5.03 mg/kg/injection, schedule: Q01DX005 (iv), vehicle: water): 101 % of control | T/C (dose: 6.25 mg/kg/injection, schedule: Q01DX009 (ip), vehicle: clinical formulation): 109 % of control | T/C (dose: 7.2 mg/kg/injection, schedule: Q01DX009 (ip), vehicle: Klucel (hydroxypropylcellulose) (HPC)): 154 % of control | T/C (dose: 7.5 mg/kg/injection, schedule: Q01DX005 (ip), vehicle: clinical formulation): 100 % of control | T/C (dose: 7.5 mg/kg/injection, schedule: Q01DX005 (ip), vehicle: water): 123 % of control | T/C (dose: 7.5 mg/kg/injection, schedule: Q01DX005 (iv), vehicle: clinical formulation): 106 % of control | T/C (dose: 7.5 mg/kg/injection, schedule: Q01DX005 (iv), vehicle: water): 117 % of control | T/C (dose: 7.5 mg/kg/injection, schedule: Q03HX008 (ip), vehicle: water): 124 % of control | T/C (dose: 7.5 mg/kg/injection, schedule: Q03HX024 (ip), vehicle: water): 184 % of control | T/C (dose: 8.64 mg/kg/injection, schedule: Q01DX009 (ip), vehicle: Klucel (hydroxypropylcellulose) (HPC)): 157 % of control | T/C (dose: 10.0 mg/kg/injection, schedule: Q01DX005 (ip), vehicle: Klucel (hydroxypropylcellulose) (HPC)): 171 % of control | T/C (dose: 10.0 mg/kg/injection, schedule: Q01DX009 (ip), vehicle: sodium bicarbonate): 171 % of control and 174 % of control | T/C (dose: 10.1 mg/kg/injection, schedule: Q01DX005 (iv), vehicle: water): 106 % of control | T/C (dose: 12.0 mg/kg/injection, schedule: Q01DX009 (ip), vehicle: Klucel (hydroxypropylcellulose) (HPC)): 173 % of control | T/C (dose: 12.0 mg/kg/injection, schedule: Q03HX006 (ip), vehicle: Klucel (hydroxypropylcellulose) (HPC)): 150 % of control | T/C (dose: 12.5 mg/kg/injection, schedule: Q01DX009 (ip), vehicle: Klucel (hydroxypropylcellulose) (HPC)): 172 % of control | T/C (dose: 12.5 mg/kg/injection, schedule: Q01DX009 (ip), vehicle: clinical formulation): 111 % of control | T/C (dose: 12.5 mg/kg/injection, schedule: Q01DX009 (oral), vehicle: sodium bicarbonate): 110 % of control and 111 % of control | T/C (dose: 12.5 mg/kg/injection, schedule: Q04DX003 (ip), vehicle: Klucel (hydroxypropylcellulose) (HPC)): 180 % of control | T/C (dose: 13.0 mg/kg/injection, schedule: Q04DX002 (ip), vehicle: Klucel (hydroxypropylcellulose) (HPC)): 120 % of control | T/C (dose: 14.4 mg/kg/injection, schedule: Q01DX009 (ip), vehicle: Klucel (hydroxypropylcellulose) (HPC)): 175 % of control | T/C (dose: 15.0 mg/kg/injection, schedule: Q01DX005 (ip), vehicle: Klucel (hydroxypropylcellulose) (HPC)): 152 % of control | T/C (dose: 15.0 mg/kg/injection, schedule: Q01DX005 (ip), vehicle: clinical formulation): 103 % of control | T/C (dose: 15.0 mg/kg/injection, schedule: Q01DX005 (iv), vehicle: clinical formulation): 102 % of control | T/C (dose: 15.0 mg/kg/injection, schedule: Q01DX005 (oral), vehicle: water): 112 % of control | T/C (dose: 15.0 mg/kg/injection, schedule: Q01DX009 (ip), vehicle: water): 153 % of control | T/C (dose: 16.8 mg/kg/injection, schedule: Q01DX009 (ip), vehicle: water): 170 % of control | T/C (dose: 20.0 mg/kg/injection, schedule: Q01DX005 (ip), vehicle: Klucel (hydroxypropylcellulose) (HPC)): 202 % of control | T/C (dose: 20.0 mg/kg/injection, schedule: Q01DX009 (ip), vehicle: Klucel (hydroxypropylcellulose) (HPC)): 207 % of control | T/C (dose: 20.0 mg/kg/injection, schedule: Q01DX009 (ip), vehicle: sodium bicarbonate): 174 % of control and 222 % of control | T/C (dose: 20.0 mg/kg/injection, schedule: Q03HX006 (ip), vehicle: Klucel (hydroxypropylcellulose) (HPC)): 154 % of control | T/C (dose: 20.1 mg/kg/injection, schedule: Q01DX005 (iv), vehicle: water): 120 % of control | T/C (dose: 21.6 mg/kg/injection, schedule: Q01DX005 (ip), vehicle: Klucel (hydroxypropylcellulose) (HPC)): 152 % of control | T/C (dose: 24.0 mg/kg/injection, schedule: Q01DX009 (ip), vehicle: Klucel (hydroxypropylcellulose) (HPC)): 181 % of control | T/C (dose: 25.0 mg/kg/injection, schedule: Q01DX009 (ip), vehicle: Klucel (hydroxypropylcellulose) (HPC)): 200 % of control | T/C (dose: 25.0 mg/kg/injection, schedule: Q01DX009 (ip), vehicle: clinical formulation): 109 % of control | T/C (dose: 25.0 mg/kg/injection, schedule: Q01DX009 (oral), vehicle: sodium bicarbonate): 112 % of control | T/C (dose: 25.0 mg/kg/injection, schedule: Q04DX003 (ip), vehicle: Klucel (hydroxypropylcellulose) (HPC)): 192 % of control | T/C (dose: 30.0 mg/kg/injection, schedule: Q01DX001 (ip), vehicle: water): 108 % of control | T/C (dose: 30.0 mg/kg/injection, schedule: Q01DX001 (iv), vehicle: water): 111 % of control | T/C (dose: 30.0 mg/kg/injection, schedule: Q01DX005 (ip), vehicle: Klucel (hydroxypropylcellulose) (HPC)): 189 % of control | T/C (dose: 30.0 mg/kg/injection, schedule: Q01DX005 (ip), vehicle: clinical formulation): 100 % of control | T/C (dose: 30.0 mg/kg/injection, schedule: Q01DX005 (iv), vehicle: clinical formulation): 105 % of control | T/C (dose: 30.0 mg/kg/injection, schedule: Q01DX009 (ip), vehicle: water): 170 % of control | T/C (dose: 30.0 mg/kg/injection, schedule: Q01DX009 (oral), vehicle: water): 161 % of control | T/C (dose: 30.0 mg/kg/injection, schedule: Q04DX003 (ip), vehicle: water): 123 % of control | T/C (dose: 33.3 mg/kg/injection, schedule: Q01DX009 (ip), vehicle: Klucel (hydroxypropylcellulose) (HPC)): 218 % of control | T/C (dose: 33.3 mg/kg/injection, schedule: Q03HX006 (ip), vehicle: Klucel (hydroxypropylcellulose) (HPC)): 159 % of control | T/C (dose: 33.6 mg/kg/injection, schedule: Q01DX009 (ip), vehicle: water): 175 % of control | T/C (dose: 36.0 mg/kg/injection, schedule: Q01DX005 (ip), vehicle: Klucel (hydroxypropylcellulose) (HPC)): 195 % of control | T/C (dose: 40.0 mg/kg/injection, schedule: Q01DX005 (ip), vehicle: Klucel (hydroxypropylcellulose) (HPC)): 240 % of control | T/C (dose: 40.0 mg/kg/injection, schedule: Q01DX009 (ip), vehicle: Klucel (hydroxypropylcellulose) (HPC)): 102 % of control | T/C (dose: 40.0 mg/kg/injection, schedule: Q01DX009 (ip), vehicle: sodium bicarbonate): 242 % of control and 91 % of control | T/C (dose: 50.0 mg/kg/injection, schedule: Q01DX009 (ip), vehicle: Klucel (hydroxypropylcellulose) (HPC)): 225 % of control | T/C (dose: 50.0 mg/kg/injection, schedule: Q01DX009 (ip), vehicle: clinical formulation): 118 % of control | T/C (dose: 50.0 mg/kg/injection, schedule: Q01DX009 (oral), vehicle: sodium bicarbonate): 191 % of control | T/C (dose: 50.0 mg/kg/injection, schedule: Q04DX003 (ip), vehicle: Klucel (hydroxypropylcellulose) (HPC)): 201 % of control | T/C (dose: 60.0 mg/kg/injection, schedule: Q01DX001 (ip), vehicle: water): 104 % of control | T/C (dose: 60.0 mg/kg/injection, schedule: Q01DX001 (iv), vehicle: water): 113 % of control | T/C (dose: 60.0 mg/kg/injection, schedule: Q01DX001 (oral), vehicle: water): 120 % of control | T/C (dose: 60.0 mg/kg/injection, schedule: Q01DX005 (ip), vehicle: Klucel (hydroxypropylcellulose) (HPC)): 176 % of control and 198 % of control | T/C (dose: 60.0 mg/kg/injection, schedule: Q01DX005 (ip), vehicle: clinical formulation): 100 % of control | T/C (dose: 60.0 mg/kg/injection, schedule: Q01DX005 (oral), vehicle: water): 153 % of control | T/C (dose: 60.0 mg/kg/injection, schedule: Q01DX009 (ip), vehicle: water): 170 % of control | T/C (dose: 60.0 mg/kg/injection, schedule: Q03HX008 (ip), vehicle: water): 120 % of control | T/C (dose: 60.0 mg/kg/injection, schedule: Q03HX024 (ip), vehicle: water): 115 % of control | T/C (dose: 60.0 mg/kg/injection, schedule: Q04DX002 (ip), vehicle: Klucel (hydroxypropylcellulose) (HPC)): 151 % of control | T/C (dose: 60.0 mg/kg/injection, schedule: Q04DX003 (ip), vehicle: water): 115 % of control | T/C (dose: 80.0 mg/kg/injection, schedule: Q01DX005 (ip), vehicle: Klucel (hydroxypropylcellulose) (HPC)): 96 % of control | T/C (dose: 100.0 mg/kg/injection, schedule: Q01DX005 (ip), vehicle: Klucel (hydroxypropylcellulose) (HPC)): 116 % of control | T/C (dose: 100.0 mg/kg/injection, schedule: Q01DX009 (oral), vehicle: sodium bicarbonate): 94 % of control | T/C (dose: 100.0 mg/kg/injection, schedule: Q04DX002 (ip), vehicle: Klucel (hydroxypropylcellulose) (HPC)): 211 % of control | T/C (dose: 100.0 mg/kg/injection, schedule: Q04DX003 (ip), vehicle: Klucel (hydroxypropylcellulose) (HPC)): 230 % of control | T/C (dose: 120.0 mg/kg/injection, schedule: Q01DX001 (ip), vehicle: water): 106 % of control | T/C (dose: 120.0 mg/kg/injection, schedule: Q01DX001 (oral), vehicle: water): 115 % of control | T/C (dose: 120.0 mg/kg/injection, schedule: Q01DX005 (oral), vehicle: water): 170 % of control | T/C (dose: 120.0 mg/kg/injection, schedule: Q04DX003 (ip), vehicle: water): 118 % of control | T/C (dose: 200.0 mg/kg/injection, schedule: Q04DX003 (ip), vehicle: Klucel (hydroxypropylcellulose) (HPC)): 103 % of control | T/C (dose: 240.0 mg/kg/injection, schedule: Q01DX001 (oral), vehicle: water): 124 % of control | T/C (dose: 480.0 mg/kg/injection, schedule: Q01DX001 (oral), vehicle: water): 157 % of control

Source: PubChem BioAssay AID330 (DTP/NCI, 2004)
